US10738028B2, “Spiro three-membered ring, spiro five-membered ring peptide deformylase inhibitor and use thereof in antibacteria and anti-tumor” (priority 2016, dated 2020)
In brackets after ≈: the same amount, converted by molar mass.

Legend:
Type in all cases: cell-based
[1] = tested on: methicillin-resistant Staphylococcus epidermidis (MRSE); assay: MIC, two-fold agar dilution (CLSI), clinical isolates
From the text: (§1) 1. The invention adopts the two-fold agar dilution method recommended by the operating procedure of antimicrobial susceptibility testing set by American Clinical and Laboratory Standards Institute (CLSI) to determine the Minimum Inhibitory Concentration (MIC) of the test samples against the tested strains.

[2] = tested on: Escherichia coli (including ESBLs, non-ESBLs); assay: as above
From the text: as §1

[3] = tested on: methicillin-sensitive Staphylococcus aureus (MSSA); assay: as above
From the text: as §1

[4] = tested on: Streptococcus pneoumoniae (SPN); assay: as above
From the text: as §1

[5] = tested on: methicillin-resistant Staphylococcus aureus (MRSA); assay: as above
From the text: as §1

[6] = tested on: Moraxella catarrhalis (BCA); assay: as above
From the text: as §1

[7] = tested on: Enterococcus faecium (EFM); assay: as above
From the text: as §1

[8] = tested on: methicillin-sensitive Staphylococcus epidermidis (MSSE); assay: as above
From the text: as §1

[9] = tested on: Enterococcus faecalis (EFA); assay: as above
From the text: as §1

[10] = tested on: HCT-116 colorectal cancer cell line; assay: CCK-8 proliferation inhibition; conditions: Homo sapiens, HCT-116, 72 h, concentration of 30 μM; 72 hours; CCK-8; read-out: HCT116 inhibition rate/%
Method: (1) HCT-116 colorectal cancer cell line, A549 lung cancer cell line, MGC-803 gastric cancer cell line, BEL-7402 liver cancer cell line, Jurkat T cell leukemia cell line, HL60 acute myeloid leukemia cell line, Hela cervical cancer cell line, MCF-7 breast cancer cell line, PC3 prostate cancer cell line and SAOS-2 osteosarcoma cell line were made into single cell suspension, 180 μL of which was inoculated into 96-well culture plate, which was cultured overnight in CO2 incubator (37° C., 5% CO2, 95% air).
(2) Each of the spiro three-membered ring, spiro five membered ring peptide deformylase inhibitors was dissolved in DMSO, and was further formulated into drug solution with required different final concentration using corresponding cell culture medium. The drug solutions were added to the above cells respectively (20 μL/well), with the control group added with 1‰ DMSO, and cultured in a CO2 incubator for 72 hours.
(3) After incubation for 72 hours, the culture solution was decanted, and 100 μL of 1:10 diluted CCK-8 solution was added.
Wherein, in step (1), the concentration of the single cell suspension was 2000 cells/well.
Wherein, in step (2), HCT-116 cells were cultured in McCoy's 5A medium (containing 10% newborn bovine serum, 1% double antibody); A549 and PC3 cells were cultured in F12 medium (containing 10% newborn bovine serum, 1% double antibody); MGC-803, BEL-7402, SAOS-2, Jurkat and HL60 cells were cultured in 1640 medium (containing 10% newborn bovine serum, 1% double antibody); and MCF-7 and Hela cells were cultured in DMEM high glucose medium (containing 10% newborn bovine serum, 1% double antibody).

Q: For `CCCC[C@H](CN(O)C=O)C(=O)N1CC2(CC2)C[C@H]1C(=O)Nc1ccncn1` [Example 16, (S)-5-((R)-2-((N-hydroxyformamido)methyl)hexanoyl)-N-(pyrimidin-4-yl)-5-spiro[2.4]heptane-6-carboxamide], which MIC (anti-bacterial activity) ([1]; strain MRSE 15-1) is on record?
A: 0.06 µg/mL (≈ 0.154 µM)

Q: What about the MIC (anti-bacterial activity) ([1]; strain MRSE 15-2) of the same compound?
A: 1 µg/mL (≈ 2.57 µM)

Q: And the MIC (anti-bacterial activity) ([1]; strain MRSE 15-3)?
A: 0.25 µg/mL (≈ 0.642 µM)

Q: And the MIC (anti-bacterial activity) ([1]; strain MRSE 15-7)?
A: 0.25 µg/mL (≈ 0.642 µM)

Q: And the MIC (anti-bacterial activity) ([2]; strain ECO+ 15-1)?
A: 32 µg/mL (≈ 82.2 µM)

Q: What about the MIC (anti-bacterial activity) ([2]; strain ECO+ 15-2) of the same compound?
A: > 32 µg/mL

Q: What about the MIC (anti-bacterial activity) ([2]; strain ECO+ 15-3) of the same compound?
A: > 32 µg/mL

Q: And the MIC (anti-bacterial activity) ([2]; strain ECO+ 15-4)?
A: > 32 µg/mL

Q: What about the MIC (anti-bacterial activity) ([2]; strain ECO− 15-1) of the same compound?
A: 32 µg/mL (≈ 82.2 µM)

Q: What about the MIC (anti-bacterial activity) ([2]; strain ECO− 15-2) of the same compound?
A: > 32 µg/mL

Q: What about the MIC (anti-bacterial activity) ([2]; strain ECO− 15-3) of the same compound?
A: > 32 µg/mL

Q: What about the MIC (anti-bacterial activity) ([2]; strain ECO− 15-4) of the same compound?
A: > 32 µg/mL

Q: What about the MIC (anti-bacterial activity) ([3]; strain MSSA 15-3) of the same compound?
A: 1 µg/mL (≈ 2.57 µM)

Q: What about the MIC (anti-bacterial activity) ([3]; strain MSSA 15-4) of the same compound?
A: 0.25 µg/mL (≈ 0.642 µM)

Q: What about the MIC (anti-bacterial activity) ([3]; strain MSSA 15-5) of the same compound?
A: 0.125 µg/mL (≈ 0.321 µM)

Q: And the MIC (anti-bacterial activity) ([3]; strain MSSA 15-6)?
A: 1 µg/mL (≈ 2.57 µM)

Q: And the MIC (anti-bacterial activity) ([4]; strain SPN 16-2)?
A: 4 µg/mL (≈ 10.3 µM)

Q: What about the MIC (anti-bacterial activity) ([4]; strain SPN 16-4) of the same compound?
A: 0.25 µg/mL (≈ 0.642 µM)

Q: What about the MIC (anti-bacterial activity) ([5]; strain MRSA 15-1) of the same compound?
A: 0.06 µg/mL (≈ 0.154 µM)

Q: And the MIC (anti-bacterial activity) ([5]; strain MRSA 15-2)?
A: 0.25 µg/mL (≈ 0.642 µM)

Q: And the MIC (anti-bacterial activity) ([5]; strain MRSA 15-3)?
A: 0.25 µg/mL (≈ 0.642 µM)

Q: What about the MIC (anti-bacterial activity) ([5]; strain MRSA 15-4) of the same compound?
A: 1 µg/mL (≈ 2.57 µM)

Q: What about the MIC (anti-bacterial activity) ([6]; strain BCA 14-1) of the same compound?
A: 0.5 µg/mL (≈ 1.28 µM)

Q: What about the MIC (anti-bacterial activity) ([6]; strain BCA 14-4) of the same compound?
A: 1 µg/mL (≈ 2.57 µM)

Q: What about the MIC (anti-bacterial activity) ([6]; strain BCA 14-5) of the same compound?
A: 0.25 µg/mL (≈ 0.642 µM)

Q: And the MIC (anti-bacterial activity) ([6]; strain BCA 14-6)?
A: 1 µg/mL (≈ 2.57 µM)

Q: And the MIC (anti-bacterial activity) ([6]; strain BCA 14-7)?
A: 0.25 µg/mL (≈ 0.642 µM)

Q: And the MIC (anti-bacterial activity) ([6]; strain BCA 14-8)?
A: 0.25 µg/mL (≈ 0.642 µM)

Q: What about the MIC (anti-bacterial activity) ([6]; strain BCA 14-10) of the same compound?
A: 0.25 µg/mL (≈ 0.642 µM)

Q: What about the MIC (anti-bacterial activity) ([7]; strain EFM 15-1) of the same compound?
A: 0.5 µg/mL (≈ 1.28 µM)

Q: What about the MIC (anti-bacterial activity) ([7]; strain EFM 15-2) of the same compound?
A: 1 µg/mL (≈ 2.57 µM)

Q: What about the MIC (anti-bacterial activity) ([7]; strain EFM 15-3) of the same compound?
A: 0.25 µg/mL (≈ 0.642 µM)

Q: And the MIC (anti-bacterial activity) ([7]; strain EFM 15-4)?
A: 2 µg/mL (≈ 5.14 µM)

Q: And the MIC (anti-bacterial activity) ([7]; strain EFM 15-5)?
A: 0.25 µg/mL (≈ 0.642 µM)

Q: And the MIC (anti-bacterial activity) ([7]; strain EFM 15-6)?
A: 2 µg/mL (≈ 5.14 µM)

Q: And the MIC (anti-bacterial activity) ([8]; strain MSSE 15-3)?
A: 1 µg/mL (≈ 2.57 µM)

Q: And the MIC (anti-bacterial activity) ([8]; strain MSSE 15-4)?
A: 0.06 µg/mL (≈ 0.154 µM)

Q: And the MIC (anti-bacterial activity) ([8]; strain MSSE 15-5)?
A: 0.06 µg/mL (≈ 0.154 µM)

Q: And the MIC (anti-bacterial activity) ([8]; strain MSSE 15-6)?
A: 0.06 µg/mL (≈ 0.154 µM)

Q: What about the MIC (anti-bacterial activity) ([9]; strain EFA 15-1) of the same compound?
A: 4 µg/mL (≈ 10.3 µM)

Q: And the MIC (anti-bacterial activity) ([9]; strain EFA 15-2)?
A: 4 µg/mL (≈ 10.3 µM)

Q: What about the MIC (anti-bacterial activity) ([9]; strain EFA 15-3) of the same compound?
A: 0.25 µg/mL (≈ 0.642 µM)

Q: And the MIC (anti-bacterial activity) ([9]; strain EFA 15-4)?
A: 4 µg/mL (≈ 10.3 µM)

Q: What about the MIC (anti-bacterial activity) ([9]; strain EFA 15-5) of the same compound?
A: 4 µg/mL (≈ 10.3 µM)

Q: And the MIC (anti-bacterial activity) ([9]; strain EFA 15-6)?
A: 4 µg/mL (≈ 10.3 µM)

Q: And the MIC (anti-bacterial activity) ([9]; strain EFA 15-9)?
A: 4 µg/mL (≈ 10.3 µM)

Q: What about the inhibition at 30 µM [10] of the same compound?
A: 24%
